Data set [1] deals with Lysine-specific histone demethylase 1A (Homo sapiens) (UniProt O60341). The experiment in a line: Covalent binding affinity to full-length human LSD1 transfected in HEK293T cell lysate at 40 uM incubated overnight by biotin-pull down assay. In kind it is subcellular.
In data set [2] the test system is T47D. Put plainly: Induction of apoptosis in human T47D cells assessed as early apoptotic cells incubated for 24 hrs by Annexin V-FITC/PI staining based flow cytometry (reference value: 0.274 %). In kind it is functional.
Data set [3] concerns A549. The experiment in a line: Cytotoxicity against human A549 cells assessed as cell viability at 100 uM incubated for 24 hrs by MTT assay relative to control. The conditions noted are these: A549, 24 h, read-out: Activity. On the technique in general: Tetrazolium dyes change colour on reduction, which living cells bring about.
Data set [4] relates to T47D. Put plainly: Cytotoxicity against human T47D cells assessed as cell viability at 100 uM incubated for 24 hrs by MTT assay relative to control. The conditions noted are these: read-out: Activity.
Data set [5] has as its target T1, Phospholipid hydroperoxide glutathione peroxidase GPX4 (Homo sapiens) (UniProt P36969).
T1 sequence (whole entry): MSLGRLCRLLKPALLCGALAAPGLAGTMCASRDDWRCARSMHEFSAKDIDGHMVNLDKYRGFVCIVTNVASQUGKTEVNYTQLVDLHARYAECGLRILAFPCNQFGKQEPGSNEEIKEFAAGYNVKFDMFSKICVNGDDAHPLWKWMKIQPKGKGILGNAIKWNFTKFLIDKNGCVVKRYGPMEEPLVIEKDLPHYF
The experiment in a line: Binding affinity to GPX4 (unknown origin) at 50 uM incubated for 12 hrs by SDS-PAGE analysis.

Data set [6] has as its target Apoptosis regulator Bcl-2 (Homo sapiens) (UniProt P10415). The experiment in a line: Binding affinity to BCL2 (unknown origin) at 50 uM incubated for 12 hrs by SDS-PAGE analysis.
Data set [7] concerns T47D. The experiment in a line: Induction of apoptosis in human T47D cells assessed as late apoptotic cells incubated for 24 hrs by Annexin V-FITC/PI staining based flow cytometry (reference value: 0.898 %). In kind it is functional.
The test system of data set [8] is A549. Put plainly: Induction of cell cycle arrest in human A549 cells assessed as cell accumulation at S phase at 50 uM incubated for 24 hrs by RNase/PI staining based flow cytometry (reference value: 39.60 %). In kind it is functional. (In general: Flow cytometry measures light scatter and fluorescence of single cells or particles in a stream.)
For data set [9], the system named is A549. The experiment in a line: Induction of cell cycle arrest in human A549 cells assessed as cell accumulation at G2 phase at 50 uM incubated for 24 hrs by RNase/PI staining based flow cytometry (reference value: 9.81 %). Format: functional.
The test system of data set [10] is A549. Particulars: Homo sapiens, dose 20.0 mg/kg, route sc, time 28.0 day.
Data set [11] can be described thus: Toxicity in athymic nude BALB/c ASlac-nu mouse xenografted with human A549 cells assessed as body weight loss at 20 mg/kg, sc everyday for 28 days. In kind it is organism-based. Particulars: in vivo, 672 h, time 28 day.
In data set [12] the test system is T47D. Put plainly: Induction of apoptosis in human T47D cells assessed as viable cells incubated for 24 hrs by Annexin V-FITC/PI staining based flow cytometry (reference value: 98.6 %). In kind it is functional.
Data set [13] addresses T2, Amine oxidase [flavin-containing] A (Homo sapiens, UniProt P21397).
T2 sequence (P21397 whole entry): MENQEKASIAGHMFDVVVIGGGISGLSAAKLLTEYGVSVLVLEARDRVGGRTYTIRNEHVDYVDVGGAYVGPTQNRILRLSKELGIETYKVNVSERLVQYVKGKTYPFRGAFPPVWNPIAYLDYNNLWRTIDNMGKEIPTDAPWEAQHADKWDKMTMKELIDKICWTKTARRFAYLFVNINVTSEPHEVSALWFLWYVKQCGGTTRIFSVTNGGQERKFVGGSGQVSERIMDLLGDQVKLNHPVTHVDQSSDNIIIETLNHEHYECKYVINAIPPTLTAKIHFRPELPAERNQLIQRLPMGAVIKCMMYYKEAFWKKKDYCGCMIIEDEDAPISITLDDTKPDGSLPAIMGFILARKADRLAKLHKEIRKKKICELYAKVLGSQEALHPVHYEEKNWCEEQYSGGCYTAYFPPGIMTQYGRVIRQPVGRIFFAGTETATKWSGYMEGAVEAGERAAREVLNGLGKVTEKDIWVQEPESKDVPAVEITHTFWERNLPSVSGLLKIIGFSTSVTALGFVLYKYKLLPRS
Put plainly: Inhibition of MAO-A (unknown origin) incubated for 10 mins by fluorescence based assay.

Data set [14] relates to A549. The experiment in a line: Induction of cell cycle arrest in human A549 cells assessed as cell accumulation at G1 phase at 50 uM incubated for 24 hrs by RNase/PI staining based flow cytometry (reference value: 49.19 %). Format: functional.
Data set [15] concerns A549. Put plainly: In vivo inhibition of LSD1 in human A549 cells xenografted in athymic nude BALB/c ASlac-nu mouse at 20 mg/kg, sc everyday for 28 days by IHC analysis. The conditions noted are these: time 28.0 day. In kind it is functional, organism-based. (In general: In xenograft studies the graft and the host belong to different species.)
Data set [16] deals with T47D. Put plainly: Induction of apoptosis in human T47D cells assessed as necrotic cells incubated for 24 hrs by Annexin V-FITC/PI staining based flow cytometry (reference value: 0.243 %). Format: functional.

The source made the active and inactive calls. The calls are words filed in the database; no cut-off is given here. *1 amine or outer side, *2 acyl side, *3 side chain or, on linkers, in order; H or OH if unused. Where a SMILES comes first, the peptide text is derived from it. Bridges are numbered along the chain shown (N, C = ends). [ ]: non-standard residue; d: D form. The star is where a group is joined. Met(S-mXyl) = C[S+](CC[C@H](N[*:1])C(=O)[*:2])Cc1cccc(C[*:3])c1; Biotin = O=C1N[C@H]2[C@H](CS[C@H]2CCCCC(=O)*)N1

Chain of Apoptosis regulator Bcl-2 (Homo sapiens) (P10415 whole entry): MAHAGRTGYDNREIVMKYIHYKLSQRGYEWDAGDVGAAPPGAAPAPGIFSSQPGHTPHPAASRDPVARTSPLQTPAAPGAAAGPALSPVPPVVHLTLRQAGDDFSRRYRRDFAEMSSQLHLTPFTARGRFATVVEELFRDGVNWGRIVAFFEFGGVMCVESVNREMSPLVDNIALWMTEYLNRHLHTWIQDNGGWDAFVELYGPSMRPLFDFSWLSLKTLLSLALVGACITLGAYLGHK

Take `CC(=O)N1CCC[C@H]1C(=O)N[C@@H](CCCNC(=N)N)C(=O)N[C@H]1CSCc2cccc(c2)C[S+](C)CC[C@@H](C(=O)N[C@@H](CCCCNC(=O)CCCC[C@@H]2SC[C@@H]3NC(=O)N[C@@H]32)C(=O)N2CCC[C@H]2C(=O)N[C@@H](Cc2c[nH]c3ccccc23)C(N)=O)NC(=O)[C@H](C(C)C)NC(=O)[C@H](CC(C)C)NC(=O)[C@H](Cc2ccccc2)NC1=O` (stereo not given in full) (Ac-PRCFLV[Met(S-mXyl)]K(Biotin)PW-NH2; thioether 3-7): the outcome in [1] was Active.

As for `CC(=O)N1CCC[C@H]1C(=O)N[C@@H](CCCNC(=N)N)C(=O)N[C@H]1CSCc2cccc(c2)C[S+](C)CC[C@@H](C(=O)N[C@@H](CCCCN)C(=O)N2CCC[C@H]2C(=O)N[C@@H](CCCNC(=N)N)C(=O)N[C@@H](CCCNC(=N)N)C(=O)N[C@@H](CCCNC(=N)N)C(=O)N[C@@H](CCCNC(=N)N)C(=O)N[C@@H](Cc2c[nH]c3ccccc23)C(N)=O)NC(=O)[C@H](C(C)C)NC(=O)[C@H](CC(C)C)NC(=O)[C@H](Cc2ccccc2)NC1=O` (stereo not given in full) (Ac-PRCFLV[Met(S-mXyl)]KPRRRRW-NH2; thioether 3-7), the Activity with T47D [2] is 0%; with T47D [7], 46.7%; in the data set on A549 [8], 27.23%; in the data set on A549 [9], 12%; in data set [11] it was “Non-Toxic”; in the data set on T47D [12] it was 2.14%. The Activity in the data set on A549 [14] was determined as 60.61%; in the data set with T47D [16] it was 51.2%. In addition, the viability at 100 µM in the data set with A549 [3] is around 19.9%; in the data set on T47D [4] it was around 7.4%. The result in data set [5] and in data set [6] was inactive. In addition, the inhibition result with A549 [10] and with A549 [15] was “Active” in each case. Moreover, the “inhibition (INH)” value in data set [13] is “Not Active”.

For the compound `C#CCN(C)CCCOc1ccc(Cl)cc1Cl` [CLORGILINE], the “inhibition (INH)” value in data set [13] is recorded as “Active”.

As to `O=C(O)c1ccc(CN2CCC(CN[C@@H]3C[C@H]3c3ccccc3)CC2)cc1` [GSK2879552], the Activity in the data set on T47D [2] is 1.62%; in the data set with T47D [7] it was 1.74%; in the data set on A549 [8], 36.7%; with A549 [9], 9.92%; in data set [11] it was “Non-Toxic”; in the data set on T47D [12], 95.9%. The values for the Activity in the data set on A549 [14] and in the data set with T47D [16] were 53.15% and 0.743%, respectively. In the data set on A549 [15], the inhibition result is “Active”.

As for Ac-PRSFLVRKPRRRRW-NH2, the Activity in the data set with T47D [2] was 1.49%; in the data set on T47D [7], 2.19%; in the data set on A549 [8], 34.2%; in the data set on A549 [9], 7.96%; in data set [11] it was “Non-Toxic”; in the data set with T47D [12], 96.3%. In addition, the Activity in the data set on A549 [14] came to 57.34%; in the data set on T47D [16] it was 0.088%. In the data set with A549 [15], the inhibition result is “Active”.

These data come from ChEMBL document CHEMBL5370666, “Covalent Peptide LSD1 Inhibitor Specifically Recognizes Cys360 in the Enzyme-Active Region” (J Med Chem, 2023).
